# According to patent publication US20240180932A1, “S[…] COMPOUNDS IN THE MANAGEMENT OF AGEING AND RELATED DISORDERS” (SOCIETE DES PRODUITS NESTLE S.A., priority 2021, published 2024):
# Columns and labels:
# [1] = test system: wild-type C. elegans; test: Lifespan of wild-type C. elegans (microfluidic Infinity System); format: in vivo; design: Mean lifespan / Maximum lifespan: unit not given here
# Procedure: FIG. 2. 10 μM Compound 1 extends the mean and maximum lifespan of C. elegans. 60-70 synchronized day 1 adult animals were loaded in each Infinity chip and treated with 0.5 μM or 10 μM of Compound 1, throughout life, and with fresh doses of OP50 bacteria (20 mg/ml) at 20 C, each day. Note that the control is the no drug treated population (0.2% v/v DMSO liquid NGM). […] Each day, at the same time, death scores were determined and three independent trials were conducted, with two technical replicates per trial.
# To determine whether Compound 1 can extend lifespan, C. elegans were treated with 0.5 μM or 10 μM Compound 1 from day 1 of adulthood. The microfluidic Infinity System was used to assess the lifespan of Compound 1-treated and non-treated control worms. 60-70 synchronized day 1 adult animals were loaded in each Infinity chip and treated with 0.5 μM or 10 μM of Compound 1, lifelong, with daily fresh doses of 20 mg/mL of OP50 bacteria at 20 C. Control is the no-drug-treated population, maintained in 0.2% v/v DMSO liquid NGM. […] Each day, at the same time death scores were determined using the Infinity Code. Three independent trials with two technical replicates per trial were conducted.
# [2] = test system: Zebrafish larvae; test: Autophagy induction in Zebrafish larvae (LC3-ZsGreen reporter, LC3 punctae); format: in vivo; conditions: 0.25, 0.5, 1 and 2.5 μM
# Procedure: FIG. 7. Compound 1 increases autophagy in Zebrafish larvae. An autophagy reporter zebrafish line was generated by stable expression of the LC3 protein fused to ZsGreen under the control of a skeletal muscle specific promoter. Larvae from outcrossed transgenic zebrafish were raised at 28 C under standard laboratory conditions and have been treated at 48 h post-fertilization in 96 well plates with varying concentrations of Compound 1 at different concentrations as indicated in the figure. After 16 hours of treatment larvae were anesthetized with 0.016% tricaine and imaged with ImageXpress confocal system at 20× magnification (Molecular Devices). Z stack images were captured for each larva and maximal projection images were produced. Ammonium chloride (final concentration 100 mM) was added for an additional 4 h to block lysosomal degradation. Images were acquired again as before. In order to quantify autophagic flux, number of LC3 punctae have been calculated in presence and in absence of ammonium chloride with MetaXpress software (Molecular Devices) and normalized by zebrafish area.
# [3] = test system: C. elegans; test: Mobility of C. elegans (highly active, moderately active, inactive cohorts); format: in vivo; conditions: for Effect on percentage of highly active animals: Days 5, 8, 12, 15
# Procedure: FIG. 4. […] To measure locomotory health related parameters the same video recordings that were captured for live/dead scoring were analyzed. The movements of the individual animals were tracked and animals were grouped into cohorts of different activity. This was achieved by determining how much of the animal body moved in a boundary box that encompasses it, in a duration of 30 seconds.
# FIG. 5. […] The movements of the individual animals were tracked and animals were grouped into cohorts of different activity. This was achieved by determining how much of the animal body moved in a boundary box that encompasses it, in a duration of 30 seconds.
# FIG. 6. […] The movements of the individual animals were tracked and animals were grouped into cohorts of different activity. This was achieved by determining how much of the animal body moved in a boundary box that encompasses it, in a duration of 30 seconds.
# It is possible to measure the mobility of C. elegans and monitor this throughout the lifespan of the worms. As with many species, C. elegans display an age-related decline in mobility. […] Therefore, we tested whether Compound 1 could improve the mobility of C. elegans throughout their lifespan. To measure locomotory health related parameters the same video recordings that were captured for live/dead scoring were analyzed using the Infinity Code. The movements of the individual animals were tracked and animals were grouped into cohorts of different activity. The cohort analysis involved determining how much of the animal body moved in the boundary box that encompasses it, in a duration of 30 seconds.
# [4] = Solubility in water-based solutions; format: physicochemical
# [5] = test system: WT C. elegans; test: Thermotolerance of C. elegans after a heat-shock of 37 C for 4 hours (survival, microfluidic Infinity System); format: in vivo; conditions: 48 hrs treatment
# Procedure: FIG. 1. Compound 1 improves the thermotolerance of C. elegans, after a 37 C heat-shock. Day 1 adults were treated with 4 different concentrations of Compound 1 for 48 hrs at 20 C. Control is the no-drug-treated population. All compound solutions were made in NGM with 0.2% v/v DMSO, and the bacterial food source (20 mg/mL E. coli OP50). After 48 hrs of Compound 1 treatment, animals were exposed to 37 C for 4 hours and allowed to recover for 15 mins following which death scores were determined using the microfluidic Infinity System. One-way ANOVA test was used to compare the response from different doses. Multiple comparison test was conducted for pairwise comparison to identify the dosages which provide thermotolerance benefit.
# It has been reported that exposing C. elegans to high temperatures increases the molecular stress and reduces animal lifespan. […] Importantly, this has been used to screen and evaluate the effectiveness of anti-ageing compounds. We monitored the survival of C. elegans after a thermal stress to determine whether Compound 1 could improve the ageing of these animals and at what concentrations this may occur. […] To achieve this, worms were maintained at their normal temperature (20 C) and then treated for 48-hour incubation with Compound 1 starting on adult day 1, followed by 4-hour heat challenge at 37 C, followed by 15 mins recovery and then death was recorded.
# [6] = test system: AMPKα2 knockout C. elegans (aak-2); test: Lifespan of AMPKα2 knockout C. elegans (aak-2); format: in vivo; design: Mean lifespan / Maximum lifespan: unit not given here
# Procedure: FIG. 3. […] 60-70 synchronized day 1 adult aak-2 animals were loaded in each Infinity chip and treated with 0.5 μM or 10 μM of Compound 1, throughout life, and with fresh doses of OP50 bacteria (20 mg/ml) at 20 C, each day. Note that the control is the no drug treated population (0.2% v/v DMSO liquid NGM). […] Each day, at the same time, death scores were determined and three independent trials were conducted, with two technical replicates per trial.
# We tested the ability of Compound 1 to extend lifespan in C elegans which have the AMP-activated protein kinase (AMPK) α2 subunit isoform deletion. This mutant strain (aak-2) is commonly used in lifespan studies to look at the dependence on activation of AMPK for mediating the lifespan and other effects of various compounds.
# [7] = aak-2, 0.5 μM, Pooled Trials 1 to 3
# [8] = aak-2, 10 μM, Pooled Trials 1 to 3
compound,measurement,setting,value
"C=C(C)[C@@H]1CCC(C)=C[C@H]1c1c(O)cc(CCCCC)c(C(=O)O)c1O [Compound 1, Cannabidiolic acid]",% lifespan extension,"[1]; 0.5 μM, Pooled Trials 1 to 3",1.3%
same,Maximum lifespan,"[1]; 0.5 μM, Pooled Trials 1 to 3",26
same,Mean lifespan,"[1]; 0.5 μM, Pooled Trials 1 to 3",15.3 ± 5.4
same,% lifespan extension,"[1]; 0.5 μM, Trial 1",4.4%
same,Maximum lifespan,"[1]; 0.5 μM, Trial 1",25
same,Mean lifespan,"[1]; 0.5 μM, Trial 1",16.6 ± 5.8
same,% lifespan extension,"[1]; 0.5 μM, Trial 2",0%
same,Maximum lifespan,"[1]; 0.5 μM, Trial 2",26
same,Mean lifespan,"[1]; 0.5 μM, Trial 2",15.2 ± 5.7
same,% lifespan extension,"[1]; 0.5 μM, Trial 3",0%
same,Maximum lifespan,"[1]; 0.5 μM, Trial 3",26
same,Mean lifespan,"[1]; 0.5 μM, Trial 3",15.0 ± 5.4
same,Effect on mean and maximum lifespan,[1]; 10 μM,significantly extended mean and maximum lifespan
same,maximum lifespan extension,[1]; 10 μM,2 days
same,mean lifespan extension,[1]; 10 μM,around 11%
same,% lifespan extension,"[1]; 10 μM, Pooled Trials 1 to 3",11.3%
same,Maximum lifespan,"[1]; 10 μM, Pooled Trials 1 to 3",27
same,Mean lifespan,"[1]; 10 μM, Pooled Trials 1 to 3",16.8 ± 5.6
same,% lifespan extension,"[1]; 10 μM, Trial 1",10%
same,Maximum lifespan,"[1]; 10 μM, Trial 1",27
same,Mean lifespan,"[1]; 10 μM, Trial 1",17.5 ± 5.8
same,% lifespan extension,"[1]; 10 μM, Trial 2",11.8%
same,Maximum lifespan,"[1]; 10 μM, Trial 2",27
same,Mean lifespan,"[1]; 10 μM, Trial 2",17.1 ± 5.9
same,% lifespan extension,"[1]; 10 μM, Trial 3",25%
same,Maximum lifespan,"[1]; 10 μM, Trial 3",26
same,Mean lifespan,"[1]; 10 μM, Trial 3",18.8 ± 6.0
same,Autophagy (LC3),"[2]; 16 hours, without NH4Cl",dose-dependent increase in autophagy
same,Autophagy (LC3),[2]; in the presence of NH4Cl,dose-dependent increase in autophagy
same,Effect on percentage of highly active animals,[3]; 0.5 μM,increases the percentage of highly active animals at Day 8 only
same,Effect on moderately active worms,"[3]; 0.5 μM, days 14 to 20",increases the number of moderately active worms
same,Effect on proportion of inactive worms,"[3]; 0.5 μM, days 14 to 20",decreases the proportion of inactive worms
same,Effect on percentage of highly active animals,[3]; 10 μM,"increases the percentage of highly active animals at Days 8, 12 and 15"
same,Effect on proportion of highly active worms,"[3]; 10 μM, days 14 and 20",increases the proportion of highly active worms
same,Effect on proportion of inactive worms,"[3]; 10 μM, days 14 and 20",decreases the proportion of inactive worms
same,Mean % of Highly Active animals,"[3]; Day 5, 0.5 μM",83.7%
same,Mean % of Highly Active animals,"[3]; Day 5, 10 μM",89.3%
same,Mean % of Highly Active animals,"[3]; Day 8, 0.5 μM",75.7%
same,Mean % of Highly Active animals,"[3]; Day 8, 10 μM",78.1%
same,Mean % of Highly Active animals,"[3]; Day 12, 0.5 μM",45.2%
same,Mean % of Highly Active animals,"[3]; Day 12, 10 μM",49.7%
same,Mean % of Highly Active animals,"[3]; Day 15, 0.5 μM",18.3%
same,Mean % of Highly Active animals,"[3]; Day 15, 10 μM",23.7%
same,Solubility,[4],low solubility in water-based solutions
same,Survival after heat shock,[5]; 0.5 μM,small improvement in survival
same,Survival after heat shock,[5]; concentrations above 0.5 μM,almost a complete prevention of C. elegans death
same,ability to extend lifespan in aak-2 worms,"[6]; aak-2, 0.5 μM or 10 μM",completely lost
same,% lifespan extension,[6]; [7],−1.2%
same,Maximum lifespan,[6]; [7],26
same,Mean lifespan,[6]; [7],15.9 ± 4.2
same,% lifespan extension,"[6]; aak-2, 0.5 μM, Trial 1",0%
same,Maximum lifespan,"[6]; aak-2, 0.5 μM, Trial 1",25
same,Mean lifespan,"[6]; aak-2, 0.5 μM, Trial 1",16.0 ± 4.2
same,% lifespan extension,"[6]; aak-2, 0.5 μM, Trial 2",−4.7%
same,Maximum lifespan,"[6]; aak-2, 0.5 μM, Trial 2",26
same,Mean lifespan,"[6]; aak-2, 0.5 μM, Trial 2",16.1 ± 4.0
same,% lifespan extension,"[6]; aak-2, 0.5 μM, Trial 3",−3.7%
same,Maximum lifespan,"[6]; aak-2, 0.5 μM, Trial 3",25
same,Mean lifespan,"[6]; aak-2, 0.5 μM, Trial 3",15.6 ± 4.4
same,% lifespan extension,[6]; [8],0%
same,Maximum lifespan,[6]; [8],26
same,Mean lifespan,[6]; [8],16.1 ± 4.2
same,% lifespan extension,"[6]; aak-2, 10 μM, Trial 1",−7.5%
same,Maximum lifespan,"[6]; aak-2, 10 μM, Trial 1",23
same,Mean lifespan,"[6]; aak-2, 10 μM, Trial 1",14.9 ± 3.8
same,% lifespan extension,"[6]; aak-2, 10 μM, Trial 2",−4.1%
same,Maximum lifespan,"[6]; aak-2, 10 μM, Trial 2",26
same,Mean lifespan,"[6]; aak-2, 10 μM, Trial 2",16.2 ± 4.7
same,% lifespan extension,"[6]; aak-2, 10 μM, Trial 3",3.8%
same,Maximum lifespan,"[6]; aak-2, 10 μM, Trial 3",24
same,Mean lifespan,"[6]; aak-2, 10 μM, Trial 3",16.8 ± 3.5
